Data: US10981891B2, “Antibacterial compounds and uses thereof” (priority 2016, dated 2021)
In brackets after ≈: the same amount, converted by molar mass.

System: M. tuberculosis H37Rv (ATCC 27294)
Experiment: Microplate Alamar Blue assay (MABA), MIC against replicating M. tuberculosis H37Rv
Format: cell-based
Conditions: Mycobacterium tuberculosis, 168 h; H37Rv, MABA, 7H12 media, 7 days at 37° C.; MIC = lowest concentration reducing fluorescence by 90% relative to controls; read-out: M. tuberculosis MIC

Structure (SMILES)	MIC
COc1cc(C(c2cc3cc(Br)ccc3nc2OC)C(O)(CCN(C)C)c2cccc(F)c2)cnc1OC (stereo not drawn) [Example 3, 1-(6-Bromo-2-methoxyquinolin-3-yl)-1-(5,6-dimethoxypyridin-3-yl)-4-(dimethylamino)-2-(3-fluorophenyl)butan-2-ol]	0.47 µg/mL (≈ 0.804 µM)
COc1cc(C(O)(CCN(C)C)C(c2cc3cc(C#N)ccc3nc2OC)c2cccc3c2OCCO3)cc(OC(F)F)n1 (stereo not drawn) [Example 91, 3-(2-(2-(Difluoromethoxy)-6-methoxypyridin-4-yl)-1-(2,3-dihydrobenzo[b][1,4]dioxin-5-yl)-4-(dimethylamino)-2-hydroxybutyl)-2-methoxyquinoline-6-carbonitrile]	0.02 µg/mL (≈ 0.033 µM)
COc1nc2ccc(Br)cc2cc1C(c1cccc2c1OCCO2)C(O)(CCN(C)C)c1cc(SC)nc(SC)c1 (stereo not drawn) [Example 56, 2-(2,6-Bis(methylthio)pyridin-4-yl)-1-(6-bromo-2-methoxyquinolin-3-yl)-1-(2,3-dihydrobenzo[b][1,4]dioxin-5-yl)-4-(dimethylamino)butan-2-ol]	0.01 µg/mL (≈ 0.0152 µM)
CCOc1cc(C(c2cc3cc(Br)ccc3nc2OC)C(O)(CCN(C)C)c2cccc3ccoc23)cc(OC)n1 (stereo not drawn) [Example 22, 2-(Benzofuran-7-yl)-1-(6-bromo-2-methoxyquinolin-3-yl)-4-(dimethylamino)-1-(2-ethoxy-6-methoxypyridin-4-yl)butan-2-ol]	< 0.02 µg/mL
COc1cc(C(O)(CCN(C)C)C(c2cc3cc(C#N)ccc3nc2OC)c2ccnc(OC)c2OC)cc(N(C)C)n1 (stereo not drawn) [Example 94, 3-(1-(2,3-Dimethoxypyridin-4-yl)-4-(dimethylamino)-2-(2-(dimethylamino)-6-methoxypyridin-4-yl)-2-hydroxybutyl)-2-methoxyquinoline-6-carbonitrile]	0.06 µg/mL (≈ 0.102 µM)
COc1cc(C(O)(CCN(C)C)C(c2ccccc2)c2cc3cc(I)ccc3nc2OC)cc(OC)n1 (stereo not drawn) [Example 42, 2-(2,6-Dimethoxypyridin-4-yl)-4-(dimethylamino)-1-(6-iodo-2-methoxyquinolin-3-yl)-1-phenylbutan-2-ol]	< 0.02 µg/mL
COc1nc2ccc(Br)cc2cc1C(c1ccccc1)C(O)(CCN(C)C)c1cccc2ccoc12 (stereo not drawn) [Example 2, 2-(Benzofuran-7-yl)-1-(6-bromo-2-methoxyquinolin-3-yl)-4-(dimethylamino)-1-phenylbutan-2-ol]	0.07 µg/mL (≈ 0.128 µM)
CCOc1cc(C(O)(CCN(C)C)C(c2cc3cc(Br)ccc3nc2OC)c2cccc(OC)c2F)cc(OC)n1 (stereo not drawn) [Example 17, 1-(6-Bromo-2-methoxyquinolin-3-yl)-4-(dimethylamino)-2-(2-ethoxy-6-methoxypyridin-4-yl)-1-(2-fluoro-3-methoxyphenyl)butan-2-ol]	< 0.01 µg/mL
COc1cc(C(O)(CCN(C)C)C(c2cc3cc(Br)ccc3nc2OC)c2ccnc(OC)c2OC)cc(N(C)C)n1 (stereo not drawn) [Example 68, 1-(6-Bromo-2-methoxyquinolin-3-yl)-1-(2,3-dimethoxypyridin-4-yl)-4-(dimethylamino)-2-(2-(dimethylamino)-6-methoxypyridin-4-yl)butan-2-ol]	0.01 µg/mL (≈ 0.0156 µM)
COc1cc(C(O)(CCN(C)C)C(c2cccc(C)c2)c2cc3cc(Br)ccc3nc2OC)cc(OC(C)C)n1 (stereo not drawn) [Example 25, 1-(6-Bromo-2-methoxyquinolin-3-yl)-4-(dimethylamino)-2-(2-isopropoxy-6-methoxypyridin-4-yl)-1-(m-tolyl)butan-2-ol]	0.01 µg/mL (≈ 0.0164 µM)
COc1nc2ccc(Br)cc2cc1C(c1ccnc(OC)c1OC)C(O)(CCN(C)C)c1ccc2occc2c1 (stereo not drawn) [Example 10, 2-(Benzofuran-5-yl)-1-(6-bromo-2-methoxyquinolin-3-yl)-1-(2,3-dimethoxypyridin-4-yl)-4-(dimethylamino)butan-2-ol]	0.03 µg/mL (≈ 0.0495 µM)
COc1cccc(C(c2cc3cc(Br)ccc3nc2OC)C(O)(CCN(C)C)c2cc(C)nc(C)c2)c1OC (stereo not drawn) [Example 37, 1-(6-Bromo-2-methoxyquinolin-3-yl)-1-(2,3-dimethoxyphenyl)-4-(dimethylamino)-2-(2,6-dimethylpyridin-4-yl)butan-2-ol]	0.08 µg/mL (≈ 0.135 µM)
